Data set [1] in a line: Thermal stability by differential scanning calorimetry (DSC). The data set is classed as physicochemical. The conditions noted are these: for thermal stability: DSC chart / heat. The text has this: On the other hand, DSC chart of 8-(3-pentylamino)-2-methyl-3-(2-chloro-4-methoxyphenyl)-6,7-dihydro-5H-cyclopenta[d]pyrazolo[1,5-a]pyrimidine hydrochloride described in WO 02/053565 is shown in FIG. 2.
It was very surprising that the difference of the salt influenced heat stability like this greatly, and it was not easily expected.
(3) Differential Scanning Calorimeter (DSC)

The nature of data set [2]: Disposition.
The target of data set [3] is T1, human CRF1 receptor (Homo sapiens, UniProt P34998).
T1 construct: expressed in transfected cells; F-12 medium fits
T1 sequence (P34998 24-415): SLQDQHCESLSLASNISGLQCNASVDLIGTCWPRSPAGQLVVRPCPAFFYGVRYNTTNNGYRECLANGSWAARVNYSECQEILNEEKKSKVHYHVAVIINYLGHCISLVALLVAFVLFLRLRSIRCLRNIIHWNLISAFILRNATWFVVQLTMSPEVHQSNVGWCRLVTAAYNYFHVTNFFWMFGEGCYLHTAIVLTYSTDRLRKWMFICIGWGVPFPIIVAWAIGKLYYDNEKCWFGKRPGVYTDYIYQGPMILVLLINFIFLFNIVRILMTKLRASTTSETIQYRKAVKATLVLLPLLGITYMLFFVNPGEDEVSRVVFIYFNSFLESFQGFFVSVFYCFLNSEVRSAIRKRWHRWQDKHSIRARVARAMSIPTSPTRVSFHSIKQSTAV
The experiment in a line: Receptor antagonistic activity (cyclic AMP assay). It is filed as cell-based. The following applies: cells expressing human CRF1 receptor; human/rat CRF-stimulated intracellular cyclic AMP; read-out: antagonist activity on CRF receptor (IC50). How it is done:
Receptor Antagonistic Activity (Cyclic AMP Assay):
A cell line expressing a human CRF1 receptor was cultured using 10% bovine embryo serum and 1% F-12 nutrient mixture containing antibiotics and antifungal under 37° C., 5% carbonic anhydride, 95% air. On the day before a measurement of cyclic AMP, the cell seed to 96-well plate to be 1×10^4 cell/well. On the measurement day, the cell was washed twice with F-12 nutrient mixture, and F-12 nutrient mixture/1 mM 3-isobutyl-1-methylxanthin (assay medium) (178 μL) was added to each well. After they were incubated for 10 minutes at 37° C., each of various concentrated solutions of the test compound (2 μL) was added, or DMSO (2 μL) was added to CRF group and blank group. After they were incubated for 15 minutes at 37° C., 10 nM assay medium containing human/rat CRF (20 μL) was added to the test compound group and CRF group. To the blank group, an assay medium containing 0.00001% acetic acid (20 μL) was added. Furthermore, they were incubated for 15 minutes at 37° C. […] The cumulative dosage of intracellular cyclic AMP was measured by Biotrak enzyme immunoassay system (Amersham Biosciences). […] The IC50 values calculated by nonlinear regression analysis with logarithm concentrate of the compound as the autonomous variable and cyclic AMP cumulative dosage as an induced variable

Data set [4] is described as follows: Solubility. The data set is classed as physicochemical.
The nature of data set [5]: Stability of the crystal for humidity and light. It is filed as physicochemical.
A short description of data set [6]: Toxicity.
The target in data set [7] is T1, human CRF1 receptor. The experiment in a line: Binding assay ([125I] h/r CRF, cell membrane fraction). The conditions noted are these: membrane fraction of CHO-K1 cells expressing human CRF1 receptor; [125I] h/r CRF 0.25 nM; 2 hours, room temperature; read-out: affinity on CRF1 receptor (IC50). The procedure:
Cell Membrane Preparation
After a cell line expressing a human CRF1 receptor (expressed cell line: CHO-K1 cells) was cultured to reach confluence, the cells were harvested with a scraper. Harvested cells were washed twice with PBS before being suspended in a binding assay buffer (Tris-HCl (50 mM, pH 7.0), EDTA (2 mM, pH 8.0), and MgCl2 (10 mM)) cooled by ice. Suspended cells were homogenized with a Downs-type homogenizer and subjected to centrifugation at 10,000 g to collect the membrane fraction. The harvested cell membrane fraction was re-suspended with a small quantity of the binding assay buffer, and further diluted with said buffer to 1 mg/mL. The membrane fraction thus obtained was used for binding assay.
Fifty μL of [^125I] h/r CRF prepared to 0.5 nM with binding assay buffer was added to siliconized 1.5 mL tubes. Each of 1 μL of compounds diluted in appropriate multiples, DMSO (for total binding use) and h/r CRF solution (100 μM, for the non-specific binding use) was added to the tubes. Samples of 50 μL each of the membrane fraction preparation were added to the tubes to initiate the reaction (final concentration of [^125I] h/r CRF: 0.25 nM), then the mixtures were incubated for 2 hours at room temperature. […] Radioactivity values of the respective tubes were measured with a γ-counter. […]

SMILES strings stand for the structures. Entries after “also recorded” stand apart in the source; their conditions may differ.

Turning to `C1=Cc2cccc(OC[C@H]3CNCCO3)c2C1.O=S(=O)(O)c1ccccc1` [benzenesulfonate], in data set [1], the thermal stability result is reported as “superior in thermal stability”.
As to `CC1(C)C2CCC1(CS(=O)(=O)O)C(=O)C2.CCC(CC)Nc1c2c(nc3c(-c4ccc(OC)cc4Cl)c(C)nn13)CCC2` [camphorsulfonate (D, L, or DL)], the thermal stability entry in data set [1] is on record as “superior in thermal stability”.
For the compound `CCC(CC)Nc1c2c(nc3c(-c4ccc(OC)cc4Cl)c(C)nn13)CCC2` [compound (1), 8-(3-pentylamino)-2-methyl-3-(2-chloro-4-methoxyphenyl)-6,7-dihydro-5H-cyclopenta[d]pyrazolo[1,5-a]pyrimidine methanesulfonate], the disposition entry in data set [2] is reported as “remarkably superior”. In addition, the IC50 in data set [3] and in data set [7] was below 1 µM each time. In addition, the thermal stability result in data set [1] (listed as the methanesulfonate compound, methanesulfonate) is “superior thermal stability”; in data set [1] (methanesulfonate) it was “steady; also recorded: superior in thermal stability”. Further, the solubility entry in data set [4] is reported as “remarkably superior”. In addition, the stability for humidity result in data set [5] is “steady”. Also, in data set [5], the stability for light result was “steady”. The toxicity result in data set [6] is “very low”.
Take `CCC(CC)Nc1c2c(nc3c(-c4ccc(OC)cc4Cl)c(C)nn13)CCC2.Cl` [the hydrochloride compound, 8-(3-pentylamino)-2-methyl-3-(2-chloro-4-methoxyphenyl)-6,7-dihydro-5H-cyclopenta[d]pyrazolo[1,5-a]pyrimidine hydrochloride, reference compound]: the thermal stability entry in data set [1] (hydrochloride) was “unstable compound to heat”; in data set [1] (listed as 8-(3-pentylamino)-2-methyl-3-(2-chloro-4-methoxyphenyl)-6,7-dihydro-5H-cyclopent, hydrochloride) it was “poor”. Besides, the “temperature at which the DSC curve changed significantly” value in data set [1] (DSC chart FIG. 2, then changed gradually after over 50° C.) was around 40 °C.
On to `CCC(CC)Nc1c2c(nc3c(-c4ccc(OC)cc4Cl)c(C)nn13)CCC2.Cc1ccc(S(=O)(=O)O)cc1` [tosylate, 8-(3-pentylamino)-2-methyl-3-(2-chloro-4-methoxyphenyl)-6,7-dihydro-5H-cyclopenta[d]pyrazolo[1,5-a]pyrimidine tosylate], for which the thermal stability result in data set [1] was “superior in thermal stability”.

A word on the IC50: it is the concentration that inhibits the measured activity by half.

For the origin of these results see patent US7947697B1, “8-(3-pentylamino)-2-methyl-3-(2-chloro-4-methoxyphenyl)-6,7-dihydro-5H-cyclopenta[d] pyrazolo[1,5-a]pyrimidine methanesulfonate as a CRF antagonist” (Ono Pharmaceutical Co., Ltd., priority 2003, dated 2011).
